From ChEMBL document CHEMBL6078700, “Synthesis of novel deuterated EGFR/ALK dual-target inhibitors and their activity against non-small cell lung cancer” (Eur J Med Chem, 2025)
Active and inactive are the calls of the source.

Experiments:
NCI-H1975 [1] = assay: Downregulation of ERAP2 expression in human NCI-H1975 cells; format: functional, cell-based; details: tested as the 2H-labelled form
NCI-H1975 [2] = assay: Downregulation of Tomm40 expression in human NCI-H1975 cells; format: functional, cell-based; details: tested as the 2H-labelled form
NCI-H1975 [3] = assay: Downregulation of LANCL1 expression in human NCI-H1975 cells; format: functional, cell-based; details: tested as the 2H-labelled form
[4] = target: ALK tyrosine kinase receptor (Homo sapiens) (UniProt Q9UM73); assay: Inhibition of ALK phosphorylation in human NCI-H2228 cells upto 10 nM incubated for 2 to 4 hrs by Western blot analysis; format: cell-based; details: time 2-4 hrs, tested as the 2H-labelled form
ALK tyrosine kinase receptor (Homo sapiens), sequence (Q9UM73 19-1620 limits assumed): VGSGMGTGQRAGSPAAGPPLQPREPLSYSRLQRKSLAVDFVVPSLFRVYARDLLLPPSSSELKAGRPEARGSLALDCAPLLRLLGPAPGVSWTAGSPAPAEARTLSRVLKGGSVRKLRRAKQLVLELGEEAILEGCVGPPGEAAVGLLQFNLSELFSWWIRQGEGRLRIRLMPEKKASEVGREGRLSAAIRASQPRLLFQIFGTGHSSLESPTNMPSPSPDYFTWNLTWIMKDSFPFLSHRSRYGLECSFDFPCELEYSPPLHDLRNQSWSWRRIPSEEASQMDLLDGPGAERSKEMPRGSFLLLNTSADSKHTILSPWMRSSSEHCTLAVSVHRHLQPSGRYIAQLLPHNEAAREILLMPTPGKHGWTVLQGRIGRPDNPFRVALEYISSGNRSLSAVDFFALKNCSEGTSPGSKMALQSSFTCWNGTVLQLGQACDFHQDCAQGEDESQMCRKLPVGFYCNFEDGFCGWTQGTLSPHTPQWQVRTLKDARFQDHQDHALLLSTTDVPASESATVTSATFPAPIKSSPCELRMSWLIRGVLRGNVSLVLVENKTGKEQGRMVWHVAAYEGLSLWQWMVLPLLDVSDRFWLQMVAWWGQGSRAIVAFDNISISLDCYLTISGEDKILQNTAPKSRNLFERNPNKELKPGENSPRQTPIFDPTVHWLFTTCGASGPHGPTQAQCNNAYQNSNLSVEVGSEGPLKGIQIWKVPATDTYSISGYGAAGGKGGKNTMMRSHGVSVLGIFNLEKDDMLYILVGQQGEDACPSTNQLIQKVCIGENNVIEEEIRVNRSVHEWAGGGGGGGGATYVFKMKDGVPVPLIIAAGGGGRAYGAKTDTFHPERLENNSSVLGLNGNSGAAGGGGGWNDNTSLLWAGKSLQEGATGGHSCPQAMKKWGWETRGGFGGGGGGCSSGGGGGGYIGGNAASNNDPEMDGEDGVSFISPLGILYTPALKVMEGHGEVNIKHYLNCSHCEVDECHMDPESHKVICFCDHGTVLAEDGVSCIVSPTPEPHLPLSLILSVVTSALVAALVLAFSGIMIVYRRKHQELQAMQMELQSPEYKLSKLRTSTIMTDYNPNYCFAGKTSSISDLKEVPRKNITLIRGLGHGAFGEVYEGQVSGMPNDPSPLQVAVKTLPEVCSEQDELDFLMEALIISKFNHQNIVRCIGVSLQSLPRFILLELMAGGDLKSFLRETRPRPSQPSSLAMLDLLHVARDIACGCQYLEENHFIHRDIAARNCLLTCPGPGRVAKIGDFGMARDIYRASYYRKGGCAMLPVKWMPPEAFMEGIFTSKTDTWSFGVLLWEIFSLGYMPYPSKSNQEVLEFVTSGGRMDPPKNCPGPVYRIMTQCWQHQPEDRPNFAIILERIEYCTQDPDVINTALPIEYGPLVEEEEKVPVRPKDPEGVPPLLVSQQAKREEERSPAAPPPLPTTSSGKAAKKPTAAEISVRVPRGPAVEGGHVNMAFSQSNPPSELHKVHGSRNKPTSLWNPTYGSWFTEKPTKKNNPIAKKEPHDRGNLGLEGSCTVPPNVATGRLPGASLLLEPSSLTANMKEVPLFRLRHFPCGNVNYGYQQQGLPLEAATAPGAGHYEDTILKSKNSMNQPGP

[5] = target: ALK tyrosine kinase receptor (Homo sapiens) (UniProt Q9UM73); assay: Inhibition of ALK in human NCI-H2228 cells assessed as decrease in pAKT level upto 10 nM incubated for 2 to 4 hrs by Western blot analysis; format: cell-based; details: time 2-4 hrs, tested as the 2H-labelled form
[6] = target: ALK tyrosine kinase receptor (Homo sapiens) (UniProt Q9UM73); assay: Inhibition of ALK in human NCI-H2228 cells assessed as decrease in pERK level upto 10 nM incubated for 2 to 4 hrs by Western blot analysis; format: cell-based; details: time 2-4 hrs, tested as the 2H-labelled form
[7] = target: ALK tyrosine kinase receptor (Homo sapiens) (UniProt Q9UM73); assay: Inhibition of ALK phosphorylation in human NCI-H2228 cells at 25 to 50 nM incubated for 12 hrs by immunofluorescence based analysis; format: cell-based; details: dose 25-50 nM, tested as the 2H-labelled form
NCI-H1975 [8] = assay: Induction of cell cycle arrest in human NCI-H1975 cells assessed as decrease in cyclin D1 level upto 10 nM incubated for 2 to 4 hrs by Western blot analysis; format: functional, cell-based; details: time 2-4 hrs, tested as the 2H-labelled form
NCI-H1975 [9] = assay: Induction of DNA damage in human NCI-H1975 cells at 1 nM incubated for 24 hrs by immunofluorescence based analysis; format: functional, cell-based; details: tested as the 2H-labelled form
NCI-H1975 [10] = assay: Induction of DNA damage in human NCI-H1975 cells assessed as increase in pH2AX level upto 10 nM incubated for 2 to 4 hrs by Western blot analysis; format: functional, cell-based; details: time 2-4 hrs, tested as the 2H-labelled form
NCI-H1975 [11] = assay: Induction of apoptosis in human NCI-H1975 cells assessed as decrease in BCL-2 level upto 10 nM incubated for 2 to 4 hrs by Western blot analysis; format: functional, cell-based; details: time 2-4 hrs, tested as the 2H-labelled form
NCI-H1975 [12] = assay: Induction of apoptosis in human NCI-H1975 cells assessed as decrease in BCL-XL level upto 10 nM incubated for 2 to 4 hrs by Western blot analysis; format: functional, cell-based; details: time 2-4 hrs, tested as the 2H-labelled form
NCI-H1975 [13] = assay: Induction of apoptosis in human NCI-H1975 cells assessed as increase in cleaved caspase-3 level upto 10 nM incubated for 2 to 4 hrs by Western blot analysis; format: functional, cell-based; details: time 2-4 hrs, tested as the 2H-labelled form
NCI-H1975 [14] = assay: Induction of mitochondrial membrane potential in human NCI-H1975 cells assessed as reduction in red fluorescence at 5 nM by JC-1 dye based analysis; format: functional, cell-based; details: tested as the 2H-labelled form
NCI-H1975 [15] = assay: Induction of mitochondrial membrane potential in human NCI-H1975 cells assessed as increase in green fluorescence at 5 nM by JC-1 dye based analysis; format: functional, cell-based; details: tested as the 2H-labelled form
NCI-H1975 [16] = assay: Anti-migration activity in human NCI-H1975 cells incubated for 24 hrs by scratch-wound assay; format: functional, cell-based; details: dose 5.0 nM, tested as the 2H-labelled form
NCI-H1975 [17] = assay: Anti-invasive activity in human NCI-H1975 cells incubated for 48 hrs by transwell assay; format: functional, cell-based; details: dose 1-10 nM, tested as the 2H-labelled form
NCI-H1975 [18] = assay: Anti-migration activity in human NCI-H1975 cells assessed as increase in E-cadherin level upto 10 nM incubated for 2 to 4 hrs by Western blot analysis; format: functional, cell-based; details: time 2-4 hrs, tested as the 2H-labelled form
NCI-H1975 [19] = assay: Anti-migration activity in human NCI-H1975 cells assessed as decrease in N-cadherin level upto 10 nM incubated for 2 to 4 hrs by Western blot analysis; format: functional, cell-based; details: time 2-4 hrs, tested as the 2H-labelled form
NCI-H1975 [20] = assay: Inhibition of colony formation in human NCI-H1975 cells assessed as reduction in tumor cell number incubated for 24 hrs followed by medium replacement daily without compound measured after 14 days by crystal violet staining based analysis; format: functional; details: dose 1-10 nM, tested as the 2H-labelled form
NCI-H1975 [21] = assay: Inhibition of colony formation in human NCI-H1975 cells assessed as reduction in tumor cell size incubated for 24 hrs followed by medium replacement daily without compound measured after 14 days by crystal violet staining based analysis; format: functional; details: dose 1-10 nM, tested as the 2H-labelled form
Mus musculus = assay: In vivo inhibition of EGFR phosphorylation in human NCI-H1975 cells xenografted in BALB/c-nu mouse at 15 to 30 mg/kg, po administered daily orally for 21 days by IHC analysis; format: functional, organism-based; details: dose 15-30 mg/kg, time 21.0 day, tested as the 2H-labelled form

C=CC(=O)Nc1cc(Nc2ncc(Cl)c(Nc3ccccc3[S+]([O-])CC)n2)c(OC)cc1N(C)CCN(C)C (single isomer, unassigned; (-))
active: Activity (NCI-H1975 [1]) | Activity (NCI-H1975 [2]) | Activity (NCI-H1975 [3]) | inhibition [4] | inhibition [5] | inhibition [6] | inhibition [7] | Activity (NCI-H1975 [8]) | Activity (NCI-H1975 [9]) | Activity (NCI-H1975 [10]) | Activity (NCI-H1975 [11]) | Activity (NCI-H1975 [12]) | Activity (NCI-H1975 [13]) | Activity (NCI-H1975 [14]) | Activity (NCI-H1975 [15]) | Activity (NCI-H1975 [16]) Dose-dependent-effect | Activity (NCI-H1975 [17]) Dose-dependent-effect | Activity (NCI-H1975 [18]) | Activity (NCI-H1975 [19]) | inhibition (NCI-H1975 [20]) Dose-dependent-effect | inhibition (NCI-H1975 [21]) Dose-dependent-effect | inhibition (Mus musculus) Active; Inhibitory Effect Was Observed Superior To That Of Osimertinib
